What was measured:
HDAC1 = HDAC1 (Homo sapiens, UniProt Q13547); assay: HDAC1 protease-coupled fluorescence (AMC) inhibition assay; type: biochemical; details: hr enzyme, 10-dose, 3-fold dilution from 50 μM (3: from 300 μM); read-out: IC50 against HDAC1
Excerpt: (§1) The new hydroxamates 2 and 6 were screened and profiled via a protease-coupled assay in which the quantification of HDAC enzyme activity is based on the formation of a free fluorescent group, the 7-amino-4-methyl coumarin (AMC).[42] […] After deacetylation by HDACs, the de(trifluoro)acetylated AMC–peptides were sensitive toward lysine peptidase and free fluorogenic AMC was generated and quantified.[42]
(§2) To gain insights into its inhibition profile for human HDACs, we tested 3 against hrHDACs 1–6 and 8 following the above procedure (Table 1).
(§3) Individual IC50 values for each HDAC isozyme were measured with the homogeneous fluorescence release HDAC assay.[42]

HDAC2 = HDAC2 (Homo sapiens, UniProt Q92769); assay: HDAC2 protease-coupled fluorescence (AMC) inhibition assay; type: biochemical; details: hr enzyme, 10-dose, 3-fold dilution from 50 μM (3: from 300 μM); read-out: IC50 against HDAC2
Chain of HDAC2 (Q92769 whole entry): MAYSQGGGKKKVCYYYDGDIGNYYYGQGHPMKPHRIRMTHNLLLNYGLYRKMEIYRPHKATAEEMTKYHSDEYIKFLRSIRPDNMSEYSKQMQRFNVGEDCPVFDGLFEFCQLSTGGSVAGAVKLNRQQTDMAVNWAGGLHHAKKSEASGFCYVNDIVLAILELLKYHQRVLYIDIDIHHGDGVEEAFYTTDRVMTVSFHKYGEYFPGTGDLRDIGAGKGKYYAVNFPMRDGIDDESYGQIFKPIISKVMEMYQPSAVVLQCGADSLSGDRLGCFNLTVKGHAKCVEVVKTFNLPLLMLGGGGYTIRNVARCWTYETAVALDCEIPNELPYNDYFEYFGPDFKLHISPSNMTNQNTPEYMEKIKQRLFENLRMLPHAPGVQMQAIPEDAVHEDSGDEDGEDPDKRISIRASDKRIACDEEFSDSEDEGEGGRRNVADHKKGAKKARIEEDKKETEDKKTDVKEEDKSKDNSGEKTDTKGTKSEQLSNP
Excerpt: as §1, §2, §3

HDAC3 = HDAC3 (Homo sapiens, UniProt O15379); assay: HDAC3 protease-coupled fluorescence (AMC) inhibition assay; type: biochemical; details: hr enzyme, 10-dose, 3-fold dilution from 50 μM (3: from 300 μM); read-out: IC50 against HDAC3
Chain of HDAC3 (O15379 whole entry): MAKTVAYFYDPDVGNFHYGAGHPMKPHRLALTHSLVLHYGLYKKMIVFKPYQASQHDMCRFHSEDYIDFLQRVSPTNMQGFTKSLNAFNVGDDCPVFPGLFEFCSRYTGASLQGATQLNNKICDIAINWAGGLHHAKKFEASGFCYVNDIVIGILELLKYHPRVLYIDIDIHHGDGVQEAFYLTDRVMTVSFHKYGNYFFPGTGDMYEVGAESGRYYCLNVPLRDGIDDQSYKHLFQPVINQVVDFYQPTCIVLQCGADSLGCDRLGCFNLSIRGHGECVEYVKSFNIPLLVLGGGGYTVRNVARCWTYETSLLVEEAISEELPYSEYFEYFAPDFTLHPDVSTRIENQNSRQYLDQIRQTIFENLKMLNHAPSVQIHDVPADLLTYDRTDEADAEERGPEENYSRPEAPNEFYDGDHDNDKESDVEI
Chain of HDAC3 (Q9Y618 395-489 partner limits assumed): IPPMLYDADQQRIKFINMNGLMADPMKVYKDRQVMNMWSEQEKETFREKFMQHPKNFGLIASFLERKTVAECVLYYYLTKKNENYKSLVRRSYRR
Excerpt: as §1, §2, §3

HDAC4 = HDAC4 (Homo sapiens, UniProt P56524); assay: HDAC4 protease-coupled fluorescence (AMC) inhibition assay; type: biochemical; details: hr enzyme, class IIa substrate Boc-Lys(trifluoroacetyl)-AMC; read-out: IC50 against HDAC4
Chain of HDAC4 (P56524 whole entry): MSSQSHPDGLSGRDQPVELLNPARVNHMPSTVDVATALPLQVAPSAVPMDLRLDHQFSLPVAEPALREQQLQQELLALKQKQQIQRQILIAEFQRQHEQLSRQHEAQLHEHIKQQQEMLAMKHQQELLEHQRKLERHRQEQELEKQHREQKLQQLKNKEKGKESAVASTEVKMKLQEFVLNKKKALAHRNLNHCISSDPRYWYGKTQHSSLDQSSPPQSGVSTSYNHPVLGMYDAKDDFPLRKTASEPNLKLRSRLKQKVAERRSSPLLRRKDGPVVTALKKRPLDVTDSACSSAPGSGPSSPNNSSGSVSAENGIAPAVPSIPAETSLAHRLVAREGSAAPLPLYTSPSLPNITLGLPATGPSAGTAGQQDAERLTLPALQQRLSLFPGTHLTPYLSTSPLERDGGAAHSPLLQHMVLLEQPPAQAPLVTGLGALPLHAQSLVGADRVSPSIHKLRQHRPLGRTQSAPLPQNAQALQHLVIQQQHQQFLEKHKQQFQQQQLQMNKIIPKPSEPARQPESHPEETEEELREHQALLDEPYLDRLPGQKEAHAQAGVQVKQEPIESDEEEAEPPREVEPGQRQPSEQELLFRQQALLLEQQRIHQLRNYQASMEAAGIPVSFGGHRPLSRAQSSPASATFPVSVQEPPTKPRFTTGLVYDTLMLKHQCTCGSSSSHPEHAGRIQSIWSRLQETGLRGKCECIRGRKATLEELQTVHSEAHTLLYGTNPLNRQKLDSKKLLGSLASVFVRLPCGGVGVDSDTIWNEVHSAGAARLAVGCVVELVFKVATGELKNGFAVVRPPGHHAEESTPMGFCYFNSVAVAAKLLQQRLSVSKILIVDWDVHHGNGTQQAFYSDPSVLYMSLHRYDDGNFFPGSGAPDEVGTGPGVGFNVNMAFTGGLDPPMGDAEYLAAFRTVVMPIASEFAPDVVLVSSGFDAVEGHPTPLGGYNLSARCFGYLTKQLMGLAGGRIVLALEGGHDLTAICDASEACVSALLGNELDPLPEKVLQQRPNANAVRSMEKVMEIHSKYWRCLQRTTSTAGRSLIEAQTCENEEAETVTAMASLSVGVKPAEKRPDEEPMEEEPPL
Excerpt: as §1, §2, §3

HDAC5 = HDAC5 (Homo sapiens, UniProt Q9UQL6); assay: HDAC5 protease-coupled fluorescence (AMC) inhibition assay; type: biochemical; details: hr enzyme, class IIa substrate Boc-Lys(trifluoroacetyl)-AMC; read-out: IC50 against HDAC5
Chain of HDAC5 (Q9UQL6 whole entry): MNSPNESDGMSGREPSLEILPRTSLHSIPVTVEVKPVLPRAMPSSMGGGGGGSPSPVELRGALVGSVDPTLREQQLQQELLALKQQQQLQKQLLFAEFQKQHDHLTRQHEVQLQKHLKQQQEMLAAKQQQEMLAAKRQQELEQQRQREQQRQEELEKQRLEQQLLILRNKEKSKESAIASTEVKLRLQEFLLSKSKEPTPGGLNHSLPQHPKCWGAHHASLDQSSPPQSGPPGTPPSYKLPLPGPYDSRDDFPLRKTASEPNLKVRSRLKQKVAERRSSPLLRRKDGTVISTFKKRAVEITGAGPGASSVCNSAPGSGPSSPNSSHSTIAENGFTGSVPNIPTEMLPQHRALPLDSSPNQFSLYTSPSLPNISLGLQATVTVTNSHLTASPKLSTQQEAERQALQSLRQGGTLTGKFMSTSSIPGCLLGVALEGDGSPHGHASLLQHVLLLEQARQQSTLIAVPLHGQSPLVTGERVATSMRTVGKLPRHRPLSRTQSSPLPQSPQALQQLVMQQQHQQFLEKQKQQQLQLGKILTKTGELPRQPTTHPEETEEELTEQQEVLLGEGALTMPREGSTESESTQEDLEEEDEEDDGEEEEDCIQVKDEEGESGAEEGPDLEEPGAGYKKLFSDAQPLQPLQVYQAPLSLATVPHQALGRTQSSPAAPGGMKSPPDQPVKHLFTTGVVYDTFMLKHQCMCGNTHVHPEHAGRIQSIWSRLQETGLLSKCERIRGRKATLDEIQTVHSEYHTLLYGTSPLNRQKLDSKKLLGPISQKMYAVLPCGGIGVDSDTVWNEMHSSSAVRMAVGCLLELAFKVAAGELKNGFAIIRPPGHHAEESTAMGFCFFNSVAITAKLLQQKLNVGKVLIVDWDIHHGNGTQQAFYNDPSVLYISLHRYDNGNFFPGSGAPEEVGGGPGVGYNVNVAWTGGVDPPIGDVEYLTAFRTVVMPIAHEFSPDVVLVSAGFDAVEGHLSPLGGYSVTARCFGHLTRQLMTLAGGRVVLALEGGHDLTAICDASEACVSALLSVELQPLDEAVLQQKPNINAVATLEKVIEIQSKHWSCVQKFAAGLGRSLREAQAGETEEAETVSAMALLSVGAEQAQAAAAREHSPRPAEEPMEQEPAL
Excerpt: as §1, §2, §3

HDAC6 = molecular target: T1, HDAC6 (Homo sapiens, UniProt Q9UBN7); assay: HDAC6 protease-coupled fluorescence (AMC) inhibition assay; type: biochemical; details: hr enzyme, 10-dose, 3-fold dilution from 50 μM (3: from 300 μM); read-out: IC50 against HDAC6
T1 sequence (Q9UBN7 1-1215): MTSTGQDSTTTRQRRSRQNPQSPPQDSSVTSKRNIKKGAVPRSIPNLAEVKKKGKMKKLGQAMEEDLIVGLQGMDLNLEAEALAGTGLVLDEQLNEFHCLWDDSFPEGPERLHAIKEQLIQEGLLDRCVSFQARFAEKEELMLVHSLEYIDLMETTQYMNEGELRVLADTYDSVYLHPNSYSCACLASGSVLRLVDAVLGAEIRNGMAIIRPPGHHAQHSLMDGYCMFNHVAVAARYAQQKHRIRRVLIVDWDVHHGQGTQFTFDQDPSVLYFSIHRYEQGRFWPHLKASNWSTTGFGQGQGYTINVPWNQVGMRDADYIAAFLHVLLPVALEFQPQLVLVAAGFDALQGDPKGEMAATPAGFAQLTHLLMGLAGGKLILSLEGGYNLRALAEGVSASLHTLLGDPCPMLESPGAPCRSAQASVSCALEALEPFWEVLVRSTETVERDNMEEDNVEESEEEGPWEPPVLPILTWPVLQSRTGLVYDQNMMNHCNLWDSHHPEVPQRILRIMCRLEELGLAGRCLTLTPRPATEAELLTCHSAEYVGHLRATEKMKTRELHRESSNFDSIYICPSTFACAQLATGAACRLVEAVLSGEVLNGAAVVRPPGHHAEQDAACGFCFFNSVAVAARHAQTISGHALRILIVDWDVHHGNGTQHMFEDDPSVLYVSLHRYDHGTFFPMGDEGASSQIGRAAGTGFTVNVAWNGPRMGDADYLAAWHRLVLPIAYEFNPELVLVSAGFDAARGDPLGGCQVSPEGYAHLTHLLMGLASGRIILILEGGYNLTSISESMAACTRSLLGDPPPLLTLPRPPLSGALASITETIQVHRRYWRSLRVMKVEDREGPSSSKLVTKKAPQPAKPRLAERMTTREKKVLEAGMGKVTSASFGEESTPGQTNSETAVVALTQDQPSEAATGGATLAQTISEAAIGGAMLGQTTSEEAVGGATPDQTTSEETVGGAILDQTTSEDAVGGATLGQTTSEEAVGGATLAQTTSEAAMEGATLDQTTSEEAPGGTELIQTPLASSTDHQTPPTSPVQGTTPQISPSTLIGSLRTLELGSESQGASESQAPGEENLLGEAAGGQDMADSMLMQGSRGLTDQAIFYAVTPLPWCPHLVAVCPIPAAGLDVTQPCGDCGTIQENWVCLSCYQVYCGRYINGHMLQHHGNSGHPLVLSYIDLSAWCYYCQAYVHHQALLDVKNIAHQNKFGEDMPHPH
Excerpt: as §1, §2, §3

HDAC8 = molecular target: T2, HDAC8 (Homo sapiens, UniProt Q9BY41); assay: HDAC8 protease-coupled fluorescence (AMC) inhibition assay; type: biochemical; details: hr enzyme, substrate RHK(Ac)K(Ac)AMC; read-out: IC50 against HDAC8
T2 sequence (Q9BY41 1-377): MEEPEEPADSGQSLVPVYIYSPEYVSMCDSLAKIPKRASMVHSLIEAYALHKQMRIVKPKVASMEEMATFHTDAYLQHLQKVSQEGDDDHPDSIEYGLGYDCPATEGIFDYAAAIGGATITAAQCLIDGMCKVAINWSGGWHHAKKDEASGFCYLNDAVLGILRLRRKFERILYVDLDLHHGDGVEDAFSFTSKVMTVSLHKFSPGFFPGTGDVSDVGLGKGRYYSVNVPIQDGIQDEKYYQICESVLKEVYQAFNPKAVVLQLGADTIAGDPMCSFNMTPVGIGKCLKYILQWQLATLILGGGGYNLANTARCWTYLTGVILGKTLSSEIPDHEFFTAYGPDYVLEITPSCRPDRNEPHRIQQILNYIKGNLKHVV
Excerpt: as §1, §2, §3

[1] = tested on: T. cruzi amastigotes and trypomastigotes; assay: T. cruzi infection assay in L929 cells (beta-galactosidase Tulahuen strain); type: cell-based, Trypanosoma cruzi
[2] = tested on: L. amazonensis promastigotes; assay: Resazurin reduction assay, L. amazonensis promastigotes; type: cell-based; details: Leishmania amazonensis; 20 μM; read-out: percentage of inhibition, L. amazonensis promastigotes
[3] = tested on: L. donovani promastigotes; assay: Resazurin reduction assay, L. donovani promastigotes; type: cell-based; details: Leishmania donovani, read-out: percentage of inhibition, L. donovani promastigotes
[4] = tested on: L. donovani axenic amastigotes; assay: Resazurin reduction assay, L. donovani axenic amastigotes; type: cell-based; details: Leishmania donovani, read-out: percentage of inhibition, L. donovani axenic amastigotes
[5] = tested on: newly transformed schistosomula (NTS); assay: Phenotypic screening on newly transformed schistosomula (NTS); type: cell-based, Schistosoma mansoni
in vitro = details: mouse, noninfected L929 fibroblast cells

Chain of HDAC1 (Q13547 whole entry): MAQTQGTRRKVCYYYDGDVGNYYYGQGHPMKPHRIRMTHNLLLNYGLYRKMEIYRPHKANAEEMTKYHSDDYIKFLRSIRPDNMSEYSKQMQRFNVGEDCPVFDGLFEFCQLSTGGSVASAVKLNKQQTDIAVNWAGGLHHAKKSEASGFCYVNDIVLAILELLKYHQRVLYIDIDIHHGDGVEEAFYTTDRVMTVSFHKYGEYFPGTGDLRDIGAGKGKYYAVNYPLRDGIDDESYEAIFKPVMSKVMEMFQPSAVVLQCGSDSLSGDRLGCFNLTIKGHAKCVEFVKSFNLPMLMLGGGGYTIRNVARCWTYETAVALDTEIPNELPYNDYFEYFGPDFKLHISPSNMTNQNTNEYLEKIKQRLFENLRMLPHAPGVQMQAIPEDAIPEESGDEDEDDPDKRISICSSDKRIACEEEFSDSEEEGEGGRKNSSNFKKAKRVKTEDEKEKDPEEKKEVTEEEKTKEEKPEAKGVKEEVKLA

For Cn1c(/C=C/C(=O)NO)ccc1/C=C/C(=O)c1cccc(Cl)c1 [Compound 3], which IC50 (HDAC1) is on record?
Its IC50 is > 300 µM.

What about the IC50 (HDAC2) of the same compound?
The IC50 was 257 µM.

What about the IC50 (HDAC3) of the same compound?
Its IC50 is > 300 µM.

And the IC50 (HDAC4)?
The IC50 was 132 µM.

And the IC50 (HDAC5)?
The IC50 was 131 µM.

And the IC50 (HDAC6)?
Its IC50 is 6.1 µM.

And the IC50 (HDAC8)?
Its IC50 is 2 µM.

And the “percentage of T. cruzi growth inhibition” value ([1]; 80 μM, infected L929 cells, 96 h, toxic = L929 death)?
Its value is “toxic”.

What about the “percentage of T. cruzi growth inhibition” value ([1]; 160 μM, infected L929 cells, 96 h, toxic = L929 death) of the same compound?
Its value is “toxic”.

And the “selectivity index (SI), CC50/EC50” value ([1]; L929 CC50 / T. cruzi EC50)?
The value was 5.7.

And the EC50 ([1]; Trypanosoma cruzi, L929, 96 h, infected L929 cells, 96 h, mean ± SD, read-out: EC50, growth of T. cruzi amastigotes and trypomastigotes)?
The EC50 was 7 ± 0.2 µM.

And the inhibition at 1.25 µM ([1]; Trypanosoma cruzi, 1.25 μM, infected L929 cells, 96 h, read-out: percentage of T. cruzi growth inhibition)?
Its inhibition at 1.25 µM is 0%.

And the inhibition at 2.5 µM ([1]; Trypanosoma cruzi, 2.5 μM, infected L929 cells, 96 h, toxic = L929 death, read-out: percentage of T. cruzi growth inhibition)?
The inhibition at 2.5 µM was 2%.

And the inhibition at 5 µM ([1]; Trypanosoma cruzi, 5 μM, infected L929 cells, 96 h, toxic = L929 death, read-out: percentage of T. cruzi growth inhibition)?
Its inhibition at 5 µM is 39%.

And the inhibition at 10 µM ([1]; Trypanosoma cruzi, 10 μM, infected L929 cells, 96 h, toxic = L929 death, read-out: percentage of T. cruzi growth inhibition)?
The inhibition at 10 µM was 67%.

And the inhibition at 20 µM ([1]; Trypanosoma cruzi, 20 μM, infected L929 cells, 96 h, toxic = L929 death, read-out: percentage of T. cruzi growth inhibition)?
The inhibition at 20 µM was 87%.

And the inhibition at 40 µM ([1]; Trypanosoma cruzi, 40 μM, infected L929 cells, 96 h, toxic = L929 death, read-out: percentage of T. cruzi growth inhibition)?
The inhibition at 40 µM was 90%.

And the inhibition at 20 µM [2]?
The inhibition at 20 µM was 9.1 ± 6.3%.

And the inhibition at 0.8 µM ([3]; 0.8 μM)?
The inhibition at 0.8 µM was 3.8 ± 3.4%.

And the inhibition at 4 µM ([3]; 4 μM)?
The inhibition at 4 µM was 1.7 ± 1.5%.

And the inhibition at 20 µM ([3]; 20 μM)?
The inhibition at 20 µM was 6.8 ± 1.8%.

What about the inhibition at 0.8 µM ([4]; 0.8 μM) of the same compound?
The inhibition at 0.8 µM was 4.9 ± 4.9%.

What about the inhibition at 4 µM ([4]; 4 μM) of the same compound?
The inhibition at 4 µM was 50.8 ± 2.4%.

And the inhibition at 20 µM ([4]; 20 μM)?
The inhibition at 20 µM was 74.9 ± 1.3%.

What about the “percentage of NTS activity, 72 h” value ([5]; 10 μM) of the same compound?
Its value is 22.3 ± 2.0%.

And the “percentage of NTS activity, 72 h” value ([5]; 20 μM)?
Its value is 23.5 ± 0.9%.

What about the IC50 ([5]; Schistosoma mansoni, 72 h, read-out: IC50, viability of NTS) of the same compound?
Its IC50 is > 20 µM.

What about the CC50 at 96 h (in vitro) of the same compound?
The CC50 at 96 h was 40 µM.
